Reference: patent publication US20090045121A1, “Dialysis Solution Preparation Water, Dialysis Solution Using Such Water, Method of Producing Dialysis Solution, and Dialysis Equipment” (priority 2006, published 2009)

Experiment: Oxidation reducing capability for glyoxal by hydrogen peroxide-luminol chemiluminescence
Conditions: added to 1.0 mM, 10.0 mM and 100.0 mM glyoxal; compared to Comparative Example 1; n=3
Description: At the elapse of 30 seconds, 1000 μl of hydrogen peroxide was further mixed therein. Then, the chemiluminescence (CL) count (number of photons) was identified continuously for 150 seconds. Measurement was initiated when the CL counts came to 200 s per second (total time: 180 seconds). For the confirmation and measurement of the CL counts, a CL analyzer (product of TOHOKU ELECTRONIC INDUSTRIAL CO., LTD.) was employed. Using the dialysis solution preparation water of Example 1 and Comparative Example 1 obtained in Experiment 1, an evaluation experiment on the oxidation reducing capability for glyoxal was conducted. An evaluation experiment (n=3) employing hydrogen peroxide-luminol chemiluminescence similar to that of Experiment 1 was carried out, provided that the test liquid used was prepared by adding 45 μl of each dialysis solution preparation water into 45 μl of glyoxal with the concentration of 1.0 mM, 10.0 mM and 100.0 mM such that the total amount of the test liquid was 90 μl. For a reference example, a similar experiment (n=3) was carried out employing ascorbic acid (well known as a free radical scavenge substance). The test liquid was prepared such that the ascorbic acid was added to attain 1.0 μg/ml for […].

Structure (SMILES): O=C1O[C@H]([C@@H](O)CO)C(O)=C1O [ascorbic acid]
- CL total count: reduced significantly
